Measurements reported in ChEMBL document CHEMBL5120837, “Synthesis and biological evaluation of conformationally restricted GluN2B ligands derived from eliprodil” (Eur J Med Chem, 2022).
pKi: −log10 of the molar value.

Test system: not listed separately
Experiment: Displacement of [3H]ifenprodil from recombinant human GluN1A/GluN2B expressed in mouse L-M(TK-) cell membranes after 120 mins by microbeta scintillation counting method
Design: species or system Membrane
Conditions: not given

Structure (SMILES)	pKi
O[C@H](CN1[C@@H]2CC[C@H]1C/C(=C/c1ccccc1)C2)c1ccccc1	7.68
O[C@H](CN1[C@@H]2CC[C@H]1C[C@@H](Cc1ccc(F)cc1)C2)c1ccccc1	7.77
O[C@H](CN1[C@@H]2CC[C@H]1C[C@@H](Cc1ccccc1)C2)c1ccccc1	7.82
O[C@H](CN1[C@@H]2CC[C@H]1C/C(=C/c1ccc(F)cc1)C2)c1ccccc1	8.03
O[C@@H](CN1[C@@H]2CC[C@H]1C[C@H](Cc1ccccc1)C2)c1ccc(F)cc1	8.28
O[C@@H](CN1[C@@H]2CC[C@H]1C[C@@H](Cc1ccc(F)cc1)C2)c1ccccc1	9.15
O[C@H](CN1[C@@H]2CC[C@H]1C[C@H](Cc1ccc(F)cc1)C2)c1ccccc1	8.72
O[C@@H](CN1[C@@H]2CC[C@H]1C[C@@H](Cc1ccc(F)cc1)C2)c1ccc(F)cc1	9.10
OC(CN1CCC(Cc2ccc(F)cc2)CC1)c1ccc(Cl)cc1 (stereo not drawn) [ELIPRODIL]	7.89
O[C@@H](CN1[C@@H]2CC[C@H]1C/C(=C/c1ccc(F)cc1)C2)c1ccccc1	7.80
O[C@@H](CN1[C@@H]2CC[C@H]1C[C@H](Cc1ccccc1)C2)c1ccccc1	7.68
O[C@@H](CN1[C@@H]2CC[C@H]1C/C(=C\c1ccc(Cl)cc1)C2)c1ccccc1	8.36
O[C@@H](CN1[C@@H]2CC[C@H]1C/C(=C\c1ccc(F)cc1)C2)c1ccccc1	8.52
O[C@@H](CN1[C@@H]2CC[C@H]1C/C(=C\c1ccccc1)C2)c1ccccc1	8.96
O[C@@H](CN1[C@@H]2CC[C@H]1C[C@@H](Cc1ccccc1)C2)c1ccccc1	8.68
O[C@@H](CN1[C@@H]2CC[C@H]1C/C(=C\c1ccccc1)C2)c1ccc(F)cc1	8.85
O[C@H](CN1[C@@H]2CC[C@H]1C/C(=C\c1ccc(F)cc1)C2)c1ccccc1	8.54
O[C@H](CN1[C@@H]2CC[C@H]1C/C(=C/c1ccc(Cl)cc1)C2)c1ccccc1	7.70
O[C@H](CN1[C@@H]2CC[C@H]1C[C@H](Cc1ccccc1)C2)c1ccccc1 (mixture of isomers)	8.62
O[C@@H](CN1[C@@H]2CC[C@H]1C/C(=C/c1ccc(F)cc1)C2)c1ccc(F)cc1	8.15
O[C@@H](CN1[C@@H]2CC[C@H]1C[C@H](Cc1ccc(F)cc1)C2)c1ccccc1	7.77
O[C@H](CN1[C@@H]2CC[C@H]1C/C(=C\c1ccccc1)C2)c1ccccc1	8.74
C[C@H]([C@H](O)c1ccc(O)cc1)N1CCC(Cc2ccccc2)CC1	8.24
O[C@@H](CN1[C@@H]2CC[C@H]1C/C(=C\c1ccc(F)cc1)C2)c1ccc(F)cc1	9.00
O[C@@H](CN1[C@@H]2CC[C@H]1C/C(=C/c1ccc(Cl)cc1)C2)c1ccccc1	7.89
O[C@@H](CN1[C@@H]2CC[C@H]1C[C@@H](Cc1ccccc1)C2)c1ccc(F)cc1	8.77
O[C@@H](CN1[C@@H]2CC[C@H]1C[C@H](Cc1ccc(F)cc1)C2)c1ccc(F)cc1	8.23
O[C@H](CN1[C@@H]2CC[C@H]1C/C(=C\c1ccc(Cl)cc1)C2)c1ccccc1	8.36
O[C@@H](CN1[C@@H]2CC[C@H]1C/C(=C/c1ccccc1)C2)c1ccccc1	7.47
O[C@@H](CN1[C@@H]2CC[C@H]1C/C(=C/c1ccccc1)C2)c1ccc(F)cc1	7.54

Molecular target: Sigma non-opioid intracellular receptor 1 (Cavia porcellus, UniProt Q60492)
Experiment: Displacement of [3H]-(+)-pentazocine from sigma1 receptor in guinea pig brain cortex membranes measured after 120 mins by scintillation counting method
Type: cell membranes, Cerebral cortex, Membrane
Conditions: not given

Sequence of Sigma non-opioid intracellular receptor 1 (Q60492 whole entry): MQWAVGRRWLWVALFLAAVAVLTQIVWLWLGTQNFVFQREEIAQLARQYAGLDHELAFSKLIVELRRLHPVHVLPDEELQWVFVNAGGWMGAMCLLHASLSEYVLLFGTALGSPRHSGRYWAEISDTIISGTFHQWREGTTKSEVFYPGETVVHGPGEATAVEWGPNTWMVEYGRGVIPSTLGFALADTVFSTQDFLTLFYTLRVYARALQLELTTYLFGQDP

Structure (SMILES)	pKi
O[C@H](CN1[C@@H]2CC[C@H]1C/C(=C/c1ccccc1)C2)c1ccccc1	7.96
O[C@H](CN1[C@@H]2CC[C@H]1C[C@@H](Cc1ccc(F)cc1)C2)c1ccccc1	8.59
O[C@H](CN1[C@@H]2CC[C@H]1C[C@@H](Cc1ccccc1)C2)c1ccccc1	8.35
O[C@H](CN1[C@@H]2CC[C@H]1C/C(=C/c1ccc(F)cc1)C2)c1ccccc1	8.18
O[C@@H](CN1[C@@H]2CC[C@H]1C[C@H](Cc1ccccc1)C2)c1ccc(F)cc1	8.17
O[C@@H](CN1[C@@H]2CC[C@H]1C[C@@H](Cc1ccc(F)cc1)C2)c1ccccc1	9.05
O[C@H](CN1[C@@H]2CC[C@H]1C[C@H](Cc1ccc(F)cc1)C2)c1ccccc1	8.68
O[C@@H](CN1[C@@H]2CC[C@H]1C[C@@H](Cc1ccc(F)cc1)C2)c1ccc(F)cc1	8.92
O[C@@H](CN1[C@@H]2CC[C@H]1C[C@H](Cc1ccccc1)C2)c1ccccc1	8.15
O[C@@H](CN1[C@@H]2CC[C@H]1C/C(=C\c1ccc(Cl)cc1)C2)c1ccccc1	8.57
O[C@@H](CN1[C@@H]2CC[C@H]1C/C(=C\c1ccccc1)C2)c1ccccc1	9.52
O[C@@H](CN1[C@@H]2CC[C@H]1C[C@@H](Cc1ccccc1)C2)c1ccccc1	8.89
O[C@H](CN1[C@@H]2CC[C@H]1C/C(=C\c1ccc(F)cc1)C2)c1ccccc1	9.35
O[C@H](CN1[C@@H]2CC[C@H]1C/C(=C/c1ccc(Cl)cc1)C2)c1ccccc1	8.05
O[C@H](CN1[C@@H]2CC[C@H]1C[C@H](Cc1ccccc1)C2)c1ccccc1 (mixture of isomers)	8.72
O[C@@H](CN1[C@@H]2CC[C@H]1C/C(=C/c1ccc(F)cc1)C2)c1ccc(F)cc1	7.55
O[C@@H](CN1[C@@H]2CC[C@H]1C[C@H](Cc1ccc(F)cc1)C2)c1ccccc1	8.15
O[C@H](CN1[C@@H]2CC[C@H]1C/C(=C\c1ccccc1)C2)c1ccccc1	9.10
O[C@@H](CN1[C@@H]2CC[C@H]1C/C(=C\c1ccc(F)cc1)C2)c1ccc(F)cc1	9.05
O[C@@H](CN1[C@@H]2CC[C@H]1C/C(=C/c1ccc(Cl)cc1)C2)c1ccccc1	7.74
O[C@@H](CN1[C@@H]2CC[C@H]1C[C@@H](Cc1ccccc1)C2)c1ccc(F)cc1	9.15
O[C@@H](CN1[C@@H]2CC[C@H]1C[C@H](Cc1ccc(F)cc1)C2)c1ccc(F)cc1	7.60
O[C@H](CN1[C@@H]2CC[C@H]1C/C(=C\c1ccc(Cl)cc1)C2)c1ccccc1	8.72
O[C@@H](CN1[C@@H]2CC[C@H]1C/C(=C/c1ccccc1)C2)c1ccccc1	8.22

Molecular target: T1, Sigma intracellular receptor 2 (Rattus norvegicus, UniProt Q5U3Y7)
T1 sequence (Q5U3Y7 whole entry): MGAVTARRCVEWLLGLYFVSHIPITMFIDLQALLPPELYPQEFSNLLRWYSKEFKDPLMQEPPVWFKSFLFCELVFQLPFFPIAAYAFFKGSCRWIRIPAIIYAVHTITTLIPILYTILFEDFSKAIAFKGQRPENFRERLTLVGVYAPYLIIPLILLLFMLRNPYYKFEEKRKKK
Experiment: Displacement of [3H]-DTG from sigma 2 receptor in rat liver membrane measured after 120 mins by microbeta counting analysis
Type: cell membranes
Conditions: not given

Structure (SMILES)	pKi
O[C@H](CN1[C@@H]2CC[C@H]1C/C(=C/c1ccccc1)C2)c1ccccc1	7.57
O[C@H](CN1[C@@H]2CC[C@H]1C[C@@H](Cc1ccc(F)cc1)C2)c1ccccc1	7.72
O[C@H](CN1[C@@H]2CC[C@H]1C[C@@H](Cc1ccccc1)C2)c1ccccc1	8.00
O[C@H](CN1[C@@H]2CC[C@H]1C/C(=C/c1ccc(F)cc1)C2)c1ccccc1	7.57
O[C@@H](CN1[C@@H]2CC[C@H]1C[C@H](Cc1ccccc1)C2)c1ccc(F)cc1	8.00
O[C@@H](CN1[C@@H]2CC[C@H]1C[C@@H](Cc1ccc(F)cc1)C2)c1ccccc1	7.66
O[C@H](CN1[C@@H]2CC[C@H]1C[C@H](Cc1ccc(F)cc1)C2)c1ccccc1	7.96
O[C@@H](CN1[C@@H]2CC[C@H]1C[C@@H](Cc1ccc(F)cc1)C2)c1ccc(F)cc1	8.23
O[C@@H](CN1[C@@H]2CC[C@H]1C[C@H](Cc1ccccc1)C2)c1ccccc1	7.85
O[C@@H](CN1[C@@H]2CC[C@H]1C/C(=C\c1ccc(Cl)cc1)C2)c1ccccc1	7.82
O[C@@H](CN1[C@@H]2CC[C@H]1C/C(=C\c1ccccc1)C2)c1ccccc1	8.18
O[C@@H](CN1[C@@H]2CC[C@H]1C[C@@H](Cc1ccccc1)C2)c1ccccc1	8.05
O[C@@H](CN1[C@@H]2CC[C@H]1C/C(=C\c1ccccc1)C2)c1ccc(F)cc1	7.96
O[C@H](CN1[C@@H]2CC[C@H]1C/C(=C\c1ccc(F)cc1)C2)c1ccccc1	7.96
O[C@H](CN1[C@@H]2CC[C@H]1C/C(=C/c1ccc(Cl)cc1)C2)c1ccccc1	7.33
O[C@H](CN1[C@@H]2CC[C@H]1C[C@H](Cc1ccccc1)C2)c1ccccc1 (mixture of isomers)	7.96
O[C@@H](CN1[C@@H]2CC[C@H]1C/C(=C/c1ccc(F)cc1)C2)c1ccc(F)cc1	7.68
O[C@@H](CN1[C@@H]2CC[C@H]1C[C@H](Cc1ccc(F)cc1)C2)c1ccccc1	7.64
O[C@H](CN1[C@@H]2CC[C@H]1C/C(=C\c1ccccc1)C2)c1ccccc1	7.92
O[C@@H](CN1[C@@H]2CC[C@H]1C/C(=C\c1ccc(F)cc1)C2)c1ccc(F)cc1	7.82
O[C@@H](CN1[C@@H]2CC[C@H]1C/C(=C/c1ccc(Cl)cc1)C2)c1ccccc1	7.66
O[C@@H](CN1[C@@H]2CC[C@H]1C[C@@H](Cc1ccccc1)C2)c1ccc(F)cc1	8.22
O[C@@H](CN1[C@@H]2CC[C@H]1C[C@H](Cc1ccc(F)cc1)C2)c1ccc(F)cc1	7.82
O[C@H](CN1[C@@H]2CC[C@H]1C/C(=C\c1ccc(Cl)cc1)C2)c1ccccc1	7.52
O[C@@H](CN1[C@@H]2CC[C@H]1C/C(=C/c1ccccc1)C2)c1ccccc1	7.00
O[C@@H](CN1[C@@H]2CC[C@H]1C/C(=C/c1ccccc1)C2)c1ccc(F)cc1	7.33

Test system: Oocyte
Experiment: Antagonist activity at GluN1a/GluN2B NMDA receptor (unknown origin) expressed in Xenopus oocytes assessed as inhibition of glycine and (S)-glutamate-induced ion channel activation at 1 uM at -70 mV holding potential by two-electrode voltage clamp method relative to control
Type: cell-based
Conditions: Homo sapiens

Structure (SMILES)	inhibition
O[C@H](CN1[C@@H]2CC[C@H]1C[C@@H](Cc1ccc(F)cc1)C2)c1ccccc1	2.3%
O[C@H](CN1[C@@H]2CC[C@H]1C/C(=C/c1ccc(F)cc1)C2)c1ccccc1	1.5%
O[C@@H](CN1[C@@H]2CC[C@H]1C[C@@H](Cc1ccc(F)cc1)C2)c1ccccc1	8.7%
O[C@H](CN1[C@@H]2CC[C@H]1C[C@H](Cc1ccc(F)cc1)C2)c1ccccc1	3.1%
O[C@@H](CN1[C@@H]2CC[C@H]1C/C(=C/c1ccc(F)cc1)C2)c1ccccc1	-0.9%
O[C@@H](CN1[C@@H]2CC[C@H]1C/C(=C\c1ccc(F)cc1)C2)c1ccccc1	1.3%
O[C@H](CN1[C@@H]2CC[C@H]1C/C(=C\c1ccc(F)cc1)C2)c1ccccc1	1.7%
O[C@@H](CN1[C@@H]2CC[C@H]1C[C@H](Cc1ccc(F)cc1)C2)c1ccccc1	5.4%
